Measurements as given in ChEMBL document CHEMBL1201862, “PubChem BioAssay data set” (2004).
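Briefly, cells in 96-well plates were exposed to five compound concentrations for 48 h, and endpoints were estimated by linear interpolation. At the GI50, growth is halved.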 Activity calls are given as the source filed them. No stated cut-off is given here; in the data, active = GI50 up to about 1.1 µM and inactive = higher.

Tests used:
Assay in all cases: NCI anticancer screen, dose series, 48 h
786-0 = test system: 786-0
A498 = test system: A498
BT-549 = test system: BT-549
COLO 205 = test system: COLO 205
DU-145 = test system: DU-145
HCC 2998 = test system: HCC 2998
HL-60 = test system: HL-60
HT-29 = test system: HT-29
K562 = test system: K562
M14 = test system: M14
MDA-MB-435 = test system: MDA-MB-435
OVCAR-3 = test system: OVCAR-3
OVCAR-5 = test system: OVCAR-5
PC-3 = test system: PC-3
RPMI-8226 = test system: RPMI-8226
SF-295 = test system: SF-295
SNB-19 = test system: SNB-19
UACC-257 = test system: UACC-257
UO-31 = test system: UO-31

Measured: GI50

N/C(=N\c1ccc(Cl)c(Cl)c1)c1ccccc1N
inactive: 786-0 28.2 µM | A498 22.3 µM | BT-549 24 µM | COLO 205 20.6 µM | DU-145 51.9 µM | HCC 2998 17.7 µM | HL-60 22.2 µM | HT-29 24.3 µM | K562 18.4 µM | M14 15.5 µM | MDA-MB-435 18.5 µM | OVCAR-3 39.5 µM | OVCAR-5 36 µM | PC-3 19.3 µM | RPMI-8226 15.6 µM | SF-295 40.6 µM | SNB-19 31.3 µM | UACC-257 27.1 µM | UO-31 24.2 µM

C=C1C(C2(C)C=CC(=O)OC3(C)COC(=O)CC32)C(OC=O)C(OC(=O)C(O)C(C)CC)C2(C)C(c3ccoc3)CC(OC(C)=O)C12O (stereo unspecified)
inactive: 786-0 > 100 µM | A498 > 100 µM | BT-549 54.6 µM | COLO 205 81.8 µM | DU-145 > 100 µM | HCC 2998 23.6 µM | HL-60 2.69 µM | HT-29 32.8 µM | K562 > 100 µM | M14 38.8 µM | MDA-MB-435 40 µM | OVCAR-3 > 100 µM | OVCAR-5 > 100 µM | PC-3 39.2 µM | RPMI-8226 > 100 µM | SF-295 84.1 µM | SNB-19 > 100 µM | UACC-257 > 100 µM | UO-31 67.3 µM

C=CC1ON(Cc2ccccc2)CCc2cc(OC)c(OC)cc21 (stereo unspecified)
inactive: 786-0 > 100 µM | A498 15.2 µM | BT-549 28.1 µM | COLO 205 41.6 µM | DU-145 > 100 µM | HCC 2998 35.5 µM | HL-60 26.1 µM | HT-29 42.4 µM | K562 42 µM | M14 49.7 µM | MDA-MB-435 24.5 µM | OVCAR-3 35.4 µM | OVCAR-5 > 100 µM | PC-3 48.9 µM | RPMI-8226 30.3 µM | SF-295 31.7 µM | SNB-19 > 100 µM | UACC-257 52.6 µM | UO-31 25.5 µM

O=[N+]([O-])c1ccc(Oc2c(Cl)cc(S(=O)(=O)N/C(=N\O)Nc3ccc(Cl)cc3)cc2Cl)c(Cl)c1
inactive: 786-0 14.7 µM | A498 12.7 µM | BT-549 14.8 µM | COLO 205 18.8 µM | DU-145 13.6 µM | HCC 2998 16 µM | HL-60 26.2 µM | HT-29 16.9 µM | K562 15.8 µM | M14 16.5 µM | MDA-MB-435 16.6 µM | OVCAR-3 12.2 µM | OVCAR-5 19.5 µM | PC-3 13.3 µM | RPMI-8226 15.2 µM | SF-295 17.3 µM | SNB-19 16.9 µM | UACC-257 15.6 µM | UO-31 13.7 µM
